Reference: patent US20110294728A1, “Antiviral Polypeptides” (priority 2008, published 2011)
Values joined by “and” are separate entries in the source; they are usually repeats but may differ in a detail not shown here. Identical values can stand only once. Where no end group is shown, it is not given here.

Tests used:
[1] = target: IN/LEDGF complex (Human immunodeficiency virus type 1 group M subtype B, UniProt P04585); test: Dissociation of IN/LEDGF complex (AlphaScreen, immunoprecipitation); format: biochemical
Experimental: Dissociation of IN/LEDGF complex was measured by fluorescence resonance energy transfer (AlphaScreen® technology) and immunoprecipitation experiments: • Amplified Luminescent Proximity Homogeneous Assay (ALPHA): when the proteins (IN and LEDGF), linked to acceptor and donor beads, interact together (i.e., are into close proximity), a photosignal (a high amplified signal with output in the 520-560 nm range) is detected; when the proteins are not in close proximity, the reactive oxygen decays and there is no detectable signal generated; • immunoprecipitation (IP) was performed using polyclonal anti LEDGF antibodies (purchased from Santa Cruz Biotechnology, USA) and polyclonal HA antibodies (purchased from Eurogentec, Belgium). Cell line expression HA-tagged integrase was using for the experiment in the presence of increasing concentrations of peptide inhibitors.

[2] = target: T1, HIV-1 RT (Human immunodeficiency virus type 1 group M subtype B, UniProt P03366); test: biochemical
T1 construct: The heterodimeric p66/p51 RT was eluted with an imidazole gradient; p66 and p51 derived from p66 by proteolytic cleavage of the C-terminal RNAse H domain; made in house; host or cells: E. coli (M15 for the His-tagged subunits)
Procedure, shortened: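 HIV-1 RT (20 nM, as added) was preincubated 23 h with increasing peptide concentrations, then reaction buffer was added (Tris pH 8.0, KCl, MgCl2, DTT, 0.15 µM poly(rA)-(dT)15, 15 µM dTTP plus 3H-dTTP, as added) for 30 min at 37 °C. Incorporated 3H was measured after TCA precipitation and filtration by scintillation counting; mean of three experiments.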

[3] = target: T2, HIV-1 integrase (Human immunodeficiency virus type 1 group M subtype B, UniProt P04585); test: biochemical
T2 construct: Integrase is a 32 kDA viral protein that is biologically active under a multimeric form
Experimental: The simultaneous measurement of integrase-DNA interaction and subsequent 3′-processing activity by steady-state fluorescence anisotropy was performed as described in Guiot et al. (2006). […] After the initial DNA-binding step (performed at 25° C.), the 3′-processing activity was measured at 37° C. by fixed-time experiments: The reaction was stopped at varying times by adding SDS (0.25% final) which disrupts all IN-DNA complexes in the sample. The IN-mediated cleavage of the terminal GT dinucleotide (labeled by fluorescein on the 3′-end) leads to a significant decrease of r as compared to the r value corresponding to the fluorescein-labeled unprocessed DNA substrate. The fraction of released dinucleotide is calculated by using Eq. (1): […]

[4] = test system: efavirenz-resistance HIV strain harbouring K103N and N341V mutations on reverse transcriptase; format: in vivo, Hu-PBL-SCID transgenic mice; conditions: EFZ resistance strain; 20 mg/kg/day; peptides formulated with CADY-2c/CADY-1S1
Experimental: The potency of the peptides p27 (SEQ ID NO: 25) and p16 (SEQ ID NO: 19) was assessed in vivo following intravenous challenge of Hu-PBL-SCID transgenic mice (in which human (hu) peripheral blood leukocytes (PBLs) from healthy Epstein-Barr virus (EBV)-seropositive donors are injected into severe combined immunodeficiency (SCID) mice; Mosier et al., 1988). The mice (6 to 8 week-old male mice, 5 animals per group) were infected with wild type HIV 1 virus or efavirenz-resistance HIV strain harbouring K103N and N341V mutations on reverse transcriptase. Infected mice were treated with peptides formulated with the peptide vector CADY-2c (see above) in water at a ratio 1/20, and then particles were coated with 3% of CADY-1S1 (see above), as described in International Application WO 2007/069090. Particles were injected intravenously (100 μl) every 2 days for 1 week, then HIV-1 copy were quantified by quantitative PCR. Efavirenz (a non-nucleoside reverse transcriptase inhibitor; EFZ) was used a positive drug control.

[5] = in vivo; conditions: for half-life: female, BALB/c, mouse, in vivo, iv, 10 μg; for tissues with peptide accumulation: formulated with CADY-2c/CADY-1S1, after 24 hr; for time of optimal distribution: formulated with CADY-2c/CADY-1S1, intravenous; for distribution of naked peptide: intravenous, after 15 min
Experimental: In order to evaluate the potency of the peptides p27 (SEQ ID NO: 25) and p16 (SEQ ID NO: 19) in vivo, it was analyzed their ability to be systemically administrated by intravenous injection in mice (BALB/c; 6 to 8 week-old female mice). Peptides were either radio-labeled at the N-terminal amino acid or fluorescently labeled with Alexa® Fluo700 probe. […] Particles were injected intravenously (100 μl) and kinetic of peptide distribution were followed by fluorescence live imaging. 24 hr after injection, the level of peptides in the different tissues were quantified by fluorescence and radioactivity.

[6] = test system: HIV-1 74V; format: cell-based; conditions: resistant to ddI and ddC
[7] = test system: HIV-1 215Y; format: cell-based; conditions: AZT-resistant

Row | Sequence | EC50 [1] | Ki [2] | reduction of efficiency (higher Ki) relative to PAW ([2]; relative to PAW) | EC50 [3] | Ki [3] | reduction of viral propagation [4] | half-life [5] | tissues with peptide accumulation [5] | time of optimal distribution [5] | distribution of naked peptide [5] | increase of efficiency relative to PAW ([2]; relative to PAW) | IC50 [6] | IC50 [7]
1 | GTKWLTEVWPL [Peptide P16] | 800 nM | 14400 nM | 20 fold | 10000 nM | 10000 nM | 58% | < 1 h | liver, brain, stomach, kidney, lung | 5 h | accumulated mainly in the bladder | – | – | –
2 | GTKWLTEWIPLTAE [Peptide P27] | – | 50 ± 0.01 nM | – | > 100000 nM | > 100000 nM | 72% | < 1 h | liver, brain, stomach, kidney, lung | 5 h | accumulated mainly in the bladder | 14 fold | 3.8 nM and 4.9 nM | 2.7 nM and 3.9 nM
